Experiments:
Aβ40 = biological target: T1, Aβ40 (Homo sapiens, UniProt P05067); assay: Short term treatment of TgCRND8 mice: Aβ40 levels in plasma and brain (ELISA); format: in vivo, Mouse; details: for Aβ40 Change: plasma, TgCRND8 mice
T1 construct: from tissue; host or cells: plasma and brain homogenate of TgCRND8 transgenic mice (hAPP transgene)
Excerpt: (§1) Transgenic mice, […]8, expressing the human amyloid precursor protein (hAPP) develop a pathology resembling Alzheimer's disease. In particular, high levels of Aβ40 and Aβ42 have been documented in the plasma and the brain of these animals at 8-9 weeks of age, followed by early accumulation of amyloid plaques similar to the senile plaques observed in […]. These animals also display progressive cognitive deficits that parallel the appearance of degenerative changes. See, […], et al., J. Biol. Chem. 276, 21562-70 (2001). The short term therapeutic effect of 19 compounds of the invention was studied. […] The following abbreviations are used to designate these animals from the 3rd and 4th generation backcross in the present protocol: TgCRND8-2.B6C3F1 (N3); TgCRND8-2.B6C3F1 (N4). Baseline animals (Group 1) consisted of naive TgCRND8-2.B6C3F1(N3) at 11±1 weeks of age. These mice were used to determine the Aβ levels in the plasma and brain of naive transgenic animals at the initiation of treatment. […] At the end of the treatment periods, plasma and perfused brains were collected for quantification of Aβ levels. […] Plasma samples were immediately frozen and stored at -80° C. pending analysis. The brains were removed, frozen, and stored at -80° C. awaiting analysis. […] Samples were spun at 15000 g for 20 minutes and the supernatants were transferred to fresh tubes. […] The tubes were vortexed for 30 seconds and frozen at -80° C. […] Samples were thawed at room temperature, sonicated at 80° C. for 15 minutes and frozen again. This cycle was repeated 3 times to ensure homogeneity and samples were returned to -80° C. pending analysis. Aβ levels were evaluated in plasma and brain samples by ELISA using Human Aβ40 and Aβ42 Fluorometric ELISA kits from Biosource (Cat. […] In short, samples were thawed at room temperature, sonicated for 5 minutes at 80° C. (sonication for brain homogenates; no sonication for plasma samples) and kept on ice. Aβ peptides were captured using 100 μl of the diluted samples to the plate and incubated without shaking at 4° C. overnight. The samples were aspirated and the wells were rinsed 4 times with wash buffer obtained from the Biosource ELISA kit. The anti-Aβ40 or anti-Aβ42 rabbit polyclonal antiserum (specific for the Aβ40 or Aβ42 peptide) was added (100 μl) and the plate was incubated at room temperature for 2 hours with shaking. The wells were aspirated and washed 4 times before adding 100 μl of the alkaline phosphatase labeled anti-rabbit antibody and incubating at room temperature for 2 hours with shaking. The plates were then rinsed 5 times and the fluorescent substrate (100 μl) was added to the plate. The plate was incubated for 35 minutes at room temperature and the plate was read using a titer plate reader at an excitation wavelength of 460 nm and emission at 560 nm. Compounds were scored based on their ability to modulate levels of Aβ peptides in the plasma and the cerebral soluble/insoluble levels in the brain. Levels of Aβ observed in the plasma and brain of treated animals were normalized using values from vehicle-treated (water) or methylcellulose-treated control groups and ranked according to the strength of the pharmacological effect. Increases in the levels of Aβ peptides are indicated using “+” symbols, while decreases in the levels of Aβ peptides are indicated using “-” symbols. The strongest effects are recorded as “+++” or “---” while the weakest are shown as “+” or “-”.

Aβ42 = biological target: T2, Aβ42 (Homo sapiens, UniProt P05067); assay: Short term treatment of TgCRND8 mice: Aβ42 levels in plasma and brain (ELISA); format: in vivo, Mouse; details: for Aβ42 Change: plasma, TgCRND8 mice
T2 construct: from tissue; host or cells: plasma and brain homogenate of TgCRND8 transgenic mice (hAPP transgene)
Excerpt: as §1

[1] = brain homogenate, vehicle group, Day 14, 250 mg/kg daily subcutaneous
[2] = brain homogenate, vehicle group, Day 28, 250 mg/kg daily subcutaneous
[3] = vehicle (water) group, Day 28, 250 mg/kg daily subcutaneous
[4] = brain homogenate, methylcellulose group, Day 14, 250 mg/kg daily oral
[5] = brain homogenate, methylcellulose group, Day 28, 250 mg/kg daily oral
[6] = methylcellulose group, Day 14, 250 mg/kg daily oral
[7] = methylcellulose group, Day 28, 250 mg/kg daily oral
[8] = vehicle (water) group, Day 14, 250 mg/kg daily subcutaneous

T2 sequence (P05067 672-713 limits assumed): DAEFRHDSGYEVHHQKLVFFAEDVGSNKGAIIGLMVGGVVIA
T1 sequence (P05067 672-711 limits assumed): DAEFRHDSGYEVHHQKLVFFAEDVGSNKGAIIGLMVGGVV

| SMILES | Aβ40 Change Soluble (Aβ40; [1]) | Aβ40 Change Insoluble (Aβ40; [2]) | Aβ40 Change (Aβ40; [3]) | Aβ42 Change Insoluble (Aβ42; [1]) | Aβ42 Change Soluble (Aβ42; [1]) | Aβ42 Change Insoluble (Aβ42; [2]) | Aβ42 Change Soluble (Aβ42; [2]) | Aβ42 Change (Aβ42; [3]) | Aβ40 Change Insoluble (Aβ40; [4]) | Aβ40 Change Soluble (Aβ40; [4]) | Aβ40 Change Insoluble (Aβ40; [5]) | Aβ40 Change Soluble (Aβ40; [5]) | Aβ42 Change Insoluble (Aβ42; [4]) | Aβ42 Change Soluble (Aβ42; [4]) | Aβ42 Change Insoluble (Aβ42; [5]) | Aβ40 Change (Aβ40; [8]) | Aβ42 Change (Aβ42; [8]) | further results |
| --- | --- | --- | --- | --- | --- | --- | --- | --- | --- | --- | --- | --- | --- | --- | --- | --- | --- | --- |
| CC[C@@H](CO)NCCCS(=O)(=O)O [CU, (S)-3-(1-hydroxy-2-butylamino)-1-propanesulfonic acid] | + (increases in the levels of Aβ (relative to untreated control) of 20 to 39% are scored as “+”) | +++ (increases of 70% or higher are scored as “+++”) | + (increases in the levels of Aβ (relative to untreated control) of 20 to 39% are scored as “+”) | − (Decreases in the levels of Aβ of 5 to 19% are scored as “−”) | ++ (increases of 40 to 69% are scored as “++”) | +++ (increases of 70% or higher are scored as “+++”) | ++ (increases of 40 to 69% are scored as “++”) | + (increases in the levels of Aβ (relative to untreated control) of 20 to 39% are scored as “+”) |  |  |  |  |  |  |  |  |  |  |
| CCCCCCCCCNCCCS(=O)(=O)O [DA, 3-nonylamino-1-propanesulfonic acid] |  |  |  |  |  |  |  |  | −−− (decreases of 39% or more are scored as “−−−”) | − (Decreases in the levels of Aβ of 5 to 19% are scored as “−”) | −− (decreases of 20 to 38% are scored as “−−”) | −− (decreases of 20 to 38% are scored as “−−”) | −− (decreases of 20 to 38% are scored as “−−”) | −− (decreases of 20 to 38% are scored as “−−”) | −− (decreases of 20 to 38% are scored as “−−”) |  |  | Aβ42 Change (Aβ42; [6]): + (increases in the levels of Aβ (relative to untreated control) of 20 to 39% are scored as “+”); Aβ42 Change (Aβ42; [7]): + (increases in the levels of Aβ (relative to untreated control) of 20 to 39% are scored as “+”) |
| O=S(=O)(O)CCCNCCc1c[nH]c2ccccc12 [Compound BT, 3-{[2-(3-indolyl)ethyl]-amino}-1-propanesulfonic acid] |  |  |  |  |  |  |  |  | +++ (increases of 70% or higher are scored as “+++”) |  | ++ (increases of 40 to 69% are scored as “++”) | −− (decreases of 20 to 38% are scored as “−−”) |  | ++ (increases of 40 to 69% are scored as “++”) |  |  |  | Aβ42 Change Soluble (Aβ42; [5]): ++ (increases of 40 to 69% are scored as “++”) |
| O=S(=O)(O)CCCNC1CCCc2ccccc21 (centres unmarked) [Compound BU, 3-(1,2,3,4-tetrahydro-1-naphthylamino)-1-propanesulfonic acid] |  |  |  |  |  |  |  |  |  | − (Decreases in the levels of Aβ of 5 to 19% are scored as “−”) | −− (decreases of 20 to 38% are scored as “−−”) | −− (decreases of 20 to 38% are scored as “−−”) | −−− (decreases of 39% or more are scored as “−−−”) |  | −− (decreases of 20 to 38% are scored as “−−”) |  |  | Aβ40 Change (Aβ40; [6]): − (Decreases in the levels of Aβ of 5 to 19% are scored as “−”) |
| CC(CO)NCCCS(=O)(=O)O (centres unmarked) [CW, 3-(1-hydroxy-2-propylamino)-1-propanesulfonic acid] |  |  | ++ (increases of 40 to 69% are scored as “++”) |  |  |  |  | + (increases in the levels of Aβ (relative to untreated control) of 20 to 39% are scored as “+”) |  |  |  |  |  |  |  | ++ (increases of 40 to 69% are scored as “++”) | ++ (increases of 40 to 69% are scored as “++”) | Aβ40 Change (total levels) (Aβ40; brain homogenate, vehicle group, Day 28, total Aβ40, soluble and insoluble not measured independently): + (increases in the levels of Aβ (relative to untreated control) of 20 to 39% are scored as “+”); Aβ42 Change (total levels) (Aβ42; brain homogenate, vehicle group, Day 28, total Aβ42, soluble and insoluble not measured independently): ++ (increases of 40 to 69% are scored as “++”) |
| NCCSS(=O)(=O)O [BE] | + (increases in the levels of Aβ (relative to untreated control) of 20 to 39% are scored as “+”) | − (Decreases in the levels of Aβ of 5 to 19% are scored as “−”) | +++ (increases of 70% or higher are scored as “+++”) | +++ (increases of 70% or higher are scored as “+++”) | +++ (increases of 70% or higher are scored as “+++”) | +++ (increases of 70% or higher are scored as “+++”) | +++ (increases of 70% or higher are scored as “+++”) | +++ (increases of 70% or higher are scored as “+++”) |  |  |  |  |  |  |  | ++ (increases of 40 to 69% are scored as “++”) | +++ (increases of 70% or higher are scored as “+++”) | Aβ40 Change Soluble (Aβ40; [2]): + (increases in the levels of Aβ (relative to untreated control) of 20 to 39% are scored as “+”) |
| CCCC(CO)NCCCS(=O)(=O)O (racemic) [Compound CA, 3-[(dl)-1-hydroxy-2-pentyl]amino-1-propane-sulfonic acid] | + (increases in the levels of Aβ (relative to untreated control) of 20 to 39% are scored as “+”) | ++ (increases of 40 to 69% are scored as “++”) | +++ (increases of 70% or higher are scored as “+++”) | −− (decreases of 20 to 38% are scored as “−−”) |  | + (increases in the levels of Aβ (relative to untreated control) of 20 to 39% are scored as “+”) | + (increases in the levels of Aβ (relative to untreated control) of 20 to 39% are scored as “+”) | +++ (increases of 70% or higher are scored as “+++”) |  |  |  |  |  |  |  | +++ (increases of 70% or higher are scored as “+++”) | +++ (increases of 70% or higher are scored as “+++”) | Aβ40 Change Insoluble (Aβ40; [1]): − (Decreases in the levels of Aβ of 5 to 19% are scored as “−”); Aβ40 Change Soluble (Aβ40; [2]): + (increases in the levels of Aβ (relative to untreated control) of 20 to 39% are scored as “+”) |
| CCCCCCCNCCCS(=O)(=O)O [CX, 3-heptylamino-1-propane-sulfonic acid] | − (Decreases in the levels of Aβ of 5 to 19% are scored as “−”) | + (increases in the levels of Aβ (relative to untreated control) of 20 to 39% are scored as “+”) | ++ (increases of 40 to 69% are scored as “++”) | − (Decreases in the levels of Aβ of 5 to 19% are scored as “−”) | + (increases in the levels of Aβ (relative to untreated control) of 20 to 39% are scored as “+”) | +++ (increases of 70% or higher are scored as “+++”) | ++ (increases of 40 to 69% are scored as “++”) | + (increases in the levels of Aβ (relative to untreated control) of 20 to 39% are scored as “+”) |  |  |  |  |  |  |  | ++ (increases of 40 to 69% are scored as “++”) | ++ (increases of 40 to 69% are scored as “++”) | Aβ40 Change Insoluble (Aβ40; [1]): − (Decreases in the levels of Aβ of 5 to 19% are scored as “−”) |
| CCCCCCCCNCCCS(=O)(=O)O [CZ, 3-octylamino-1-propanesulfonic acid] |  |  |  |  |  |  |  |  | −− (decreases of 20 to 38% are scored as “−−”) | − (Decreases in the levels of Aβ of 5 to 19% are scored as “−”) |  | − (Decreases in the levels of Aβ of 5 to 19% are scored as “−”) | −−− (decreases of 39% or more are scored as “−−−”) | −−− (decreases of 39% or more are scored as “−−−”) | −− (decreases of 20 to 38% are scored as “−−”) |  |  | Aβ40 Change (Aβ40; [6]): − (Decreases in the levels of Aβ of 5 to 19% are scored as “−”); Aβ42 Change Soluble (Aβ42; [5]): − (Decreases in the levels of Aβ of 5 to 19% are scored as “−”); Aβ42 Change (Aβ42; [6]): − (Decreases in the levels of Aβ of 5 to 19% are scored as “−”); Aβ42 Change (Aβ42; [7]): − (Decreases in the levels of Aβ of 5 to 19% are scored as “−”) |
